Measured values published in patent publication US11022604B2, “Dock derived compound against laminin receptor (37 LR) and uses thereof” (Purdue Research Foundation, priority 2017, dated 2021).

B1: recombinant PEDF: Recombinant pigment epithelium-derived factor (BioProductsMD), secreted glycoprotein (protein, UniProt P36955 20-418, looked up)
Pigment epithelium-derived …: QNPASPPEEGSPDPDSTGALVEEEDPFFKVPVNKLAAAVSNFGYDLYRVRSSTSPTTNVLLSPLSVATALSALSLGAEQRTESIIHRALYYDLISSPDIHGTYKELLDTVTAPQKNLKSASRIVFEKKLRIKSSFVAPLEKSYGTRPRVLTGNPRLDLQEINNWVQAQMKGKLARSTKEIPDEISILLLGVAHFKGQWVTKFDSRKTSLEDFYLDEERTVRVPMMSDPKAVLRYGLDSDLSCKIAQLPLTGSMSIIFFLPLKVTQNLTLIEESLTSEFIHDIDRELKTVQAVLTVPKLKLSYEGEVTKSLQEMKLQSLFDSPDFSKITGKPIKLTQVEHRAGFEWNEDGAGTTPSPGLQPAHLTFPLDYHLNQPFIFVLRDTDTGALLFIGKILDPRGP

Legend:
Assay type in all cases: cell-based
[1] = tested on: endothelial vessel formation in vitro (tube formation); assay: Angiogenesis tube formation assay (derivatives); conditions: 30 uM, 7 hour incubation
Method: FIGS. 28A-28F Representative images of tube formation. 7 hour incubation period with respective compounds: FIG. 28A, DMSO; FIG. 28B DBGII-3, 30 uM; FIG. 28C, EGCG, 30 uM; FIG. 28 D, DBGII-5, 30 uM, FIG. 28E, C3, 30 uM; FIG. 28 F, DBGII-9, 30 uM.
An angiogenesis tube formation assay was used to characterize the impact of compounds against endothelial vessel formation in vitro (i.e., tube formation).

[2] = tested on: PC3 prostate cancer cell lines; assay: CCK8 cell viability screen of derivatives; conditions: PC3, CCK8, day three
Method: FIGS. 22A-22B. Screen of all the derivatives made in Example 17 in CCK8 cell viability assay with PC3 prostate cancer cell lines at day 3 (FIG. 22A) and day 5 (FIG. 22B).
FIG. 23. All derivatives made in Example 17 are tested for cell inhibition percentage at day 3.
CCK8 cell viability assay with PC3 prostate cancer cell lines is conducted and cell viability on day 3, day 5 are examined, see FIGS. 22A-22B. Additionally, the cell inhibition percentage for compounds DBG1-191, 1-200, 02-09, 2-14, among others were further characterized in CCK8 assay against PC3.

[3] = tested on: PC3 prostate cancer cell line; assay: Cell Titer Glo cell viability assay
Text: In this series of cell viability experiments, we used the highly sensitive Cell Titer Glo reagents from Promega in PC3 prostate cancer cell line. We compared the parental compound C3 effect on reducing cell viability with the best derivative compound, DBG-02-09.

[4] = tested on: PC-3 cells; assay: PC-3 cell viability response to recombinant PEDF (CCK-8); conditions: 48 hours
Method: FIG. 13. PC-3 Cell Viability Response To Recombinant PEDF PC-3 cells were treated with 0.1 to 0.6 μM rPEDF for 48 hours and cell viability was measured using the CCK-8 assay (n=3, mean±SEM). A one-way ANOVA was used for statistical analysis (n.s. p=0.11) however the linear trend was significant (post test for linear trend, p<0.05).
Recombinant PEDF (BioProductsMD) was resuspended in PEDF Buffer (0.2 M NaCl, 20 mM sodium phosphate, and 1 mM DTT; ph 6.4). 1,500 cells per well were seeded in a clear 96-well plate in RPMI-1640 with 1% anti-anti and 10% FBS and allowed to grow overnight. A 0-hour recording was taken using CCK-8 and compared to a 48-hour reading after incubating PC-3 cells with recombinant PEDF (0.1 μM to […]) in RPMI-1640 with 1% anti-anti and 1% FBS. […] The adenovirus was administered intravenously (2×10^8 pfu/i.v.) 3 days following subcutaneous TC2-Ras cell implantation (10^4 or 10^5, without mAR (−mAR control) or with mAR (+mAR) in C57/BL6 male mice. Mice were injected intraperitoneally with 150 mg/kg Luciferin (10-20 min incubation) followed by a 5 min signal acquisition using an IVIS 100 imager (Caliper/PerkinElmer, Downers Grove, Ill.) and analyzed with LivingImage 3.1 software (Caliper/PerkinElmer), with signals reported as photons per second per […] per steridian (p/sec/cm^2/sr). Statistics. Statistical analysis was performed using GraphPad Prism 6. […]

Row | Molecule | tube formation [1] | cell inhibition percentage (rank among derivatives) [2] | IC50 ([3]; Homo sapiens, PC-3, PC3 cells) [µM] | reduction of IC50 relative to parental compound C3 ([3]; PC3 cells) [fold] | dose/response relationship for survival of PC-3 cells [4]
1 | O=C(c1ccncc1Oc1ccccc1)N1CCN(C2c3ccccc3-c3ccccc32)CC1 [DBGII-03] | Thinning of tubes formed |  |  |  | 
2 | O=C(c1ccccc1)N1CCN(C2c3ccccc3-c3ccccc32)CC1 [DBGII-05] | Thinning of tubes formed |  |  |  | 
3 | CN(C)CCOc1ccccc1C(=O)N1CCN(C2c3ccccc3-c3ccccc32)CC1 [DBGII-09] | Thinning of tubes formed | highest inhibition | 7.6 ± 0.52 | 2.2 | 
4 | B1 |  |  |  |  | unable to demonstrate a significant dose/response relationship
